Values quoted from earlier work as cited in article PMC5799168 (Scientific Reports, 2018).
pIC50: −log10 of the molar value.

Molecular target: T1, Ndi1 (Saccharomyces cerevisiae, UniProt P32340)
T1 construct: The mature Ndi1, which lacks a mitochondrial targeting; (His)10; made in house; host or cells: E. coli BL21(DE3)pLysS, plasmid pET16b(NDI1-m)
T1 sequence (P32340 27-513): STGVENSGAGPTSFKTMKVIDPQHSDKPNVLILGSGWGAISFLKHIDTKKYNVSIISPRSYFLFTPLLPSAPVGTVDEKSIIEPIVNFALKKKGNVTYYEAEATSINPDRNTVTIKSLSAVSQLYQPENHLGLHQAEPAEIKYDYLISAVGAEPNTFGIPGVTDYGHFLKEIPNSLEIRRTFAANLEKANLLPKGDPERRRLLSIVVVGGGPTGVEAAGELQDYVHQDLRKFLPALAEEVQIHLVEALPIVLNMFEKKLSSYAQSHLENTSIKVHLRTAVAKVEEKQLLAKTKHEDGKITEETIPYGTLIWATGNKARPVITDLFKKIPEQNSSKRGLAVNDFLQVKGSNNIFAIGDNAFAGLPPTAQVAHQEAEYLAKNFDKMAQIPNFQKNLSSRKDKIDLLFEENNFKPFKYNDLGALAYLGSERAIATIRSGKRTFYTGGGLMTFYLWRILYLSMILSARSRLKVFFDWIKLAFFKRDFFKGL
Parameters: method as in PMID 17200125
Settings: inhibition of Ndi1; cited from earlier work

CCCCCCCCCCCc1cc(=O)c2ccccc2n1O [AC0-11, 1-hydroxy-2-undecyl-4(1 H) quinolone]
pIC50: 6.70
